Like-named read-outs stand apart in the source and are kept apart here.
Key:
[1] = system: LAPC4 prostate cancer cells, which express the AKT1 E17K allele; experiment: Antiproliferative effects in LAPC4 cells (CellTiter Glo, 72 h); assay type: cell-based; details: read-out: LAPC4 proliferation IC50
Protocol: Antiproliferative Effects in LAPC4 Cells.
LAPC4 prostate cancer cells (Klein, K. A. et al. Nat Med 1997, 3, 402-408), which express the AKT1 E17K allele, were grown in IMDM media (Hyclone) supplemented with 12% FBS+1% P/S. To assess compound effects on growth, 1,000 cells/well were seeded in 384 well assay plates, incubated with compound dilutions dissolved in DMSO. After 72 h, intracellular ATP content was assessed with CellTiter Glo reagent (Promega) according to the manufacturer's instructions. IC50 values were calculated by fitting luminescence values to a log(inhibitor) vs. response Hill equation.

[2] = biological target: T1, AKT1 E17K (Homo sapiens, UniProt P31749, E17K); experiment: Live cell AKT1 E17K target engagement by NanoBRET competitive probe displacement in HEK293 cells; assay type: binding; details: 2 h at 37° C.
T1 construct: expressed in transfected cells; host or cells: HEK293
Protocol: Determining live cell AKT1 E17K, AKT1 WT, and AKT2 target engagement by NanoBRET competitive probe displacement. Live cell target engagement assays were performed as described (Vasta, J. D. et al. Cell Chem Biol 2018, 25(11), 206-214). Briefly, HEK293 cells were transfected with plasmids encoding kinase-NanoLuciferase fusion proteins overnight. Cells were then treated with serial dilutions of compound and an ˜EC50 concentration of fluorescently-tagged ATP-competitive tracer (Promega). After incubation for 2 h at 37° C., luciferase substrate and extracellular luciferase inhibitor were added to all wells, and luminescent intensity at 460 nm and 600 nm were measured on a multimode plate-reader. The ratio of E600/E460 was calculated to give the tracer engagement signal (BRET). IC50 values were calculated by fitting BRET values to a log(inhibitor) vs. response Hill equation.

[3] = biological target: T2, AKT1 WT (Homo sapiens, UniProt P31749); experiment: Live cell AKT1 WT target engagement by NanoBRET competitive probe displacement in HEK293 cells; assay type: binding; details: 2 h at 37° C., read-out: AKT1 WT IC50
T2 construct: expressed in transfected cells; host or cells: HEK293

[4] = biological target: T3, AKT2 (Homo sapiens, UniProt P31751); experiment: Live cell AKT2 target engagement by NanoBRET competitive probe displacement in HEK293 cells; assay type: binding; details: 2 h at 37° C., read-out: AKT2 IC50
T3 construct: expressed in transfected cells; host or cells: HEK293

[5] = NanoBRET live cell target engagement, HEK293 cells
[6] = NanoBRET competitive probe displacement, live HEK293 cells

T2 sequence (P31749 whole entry): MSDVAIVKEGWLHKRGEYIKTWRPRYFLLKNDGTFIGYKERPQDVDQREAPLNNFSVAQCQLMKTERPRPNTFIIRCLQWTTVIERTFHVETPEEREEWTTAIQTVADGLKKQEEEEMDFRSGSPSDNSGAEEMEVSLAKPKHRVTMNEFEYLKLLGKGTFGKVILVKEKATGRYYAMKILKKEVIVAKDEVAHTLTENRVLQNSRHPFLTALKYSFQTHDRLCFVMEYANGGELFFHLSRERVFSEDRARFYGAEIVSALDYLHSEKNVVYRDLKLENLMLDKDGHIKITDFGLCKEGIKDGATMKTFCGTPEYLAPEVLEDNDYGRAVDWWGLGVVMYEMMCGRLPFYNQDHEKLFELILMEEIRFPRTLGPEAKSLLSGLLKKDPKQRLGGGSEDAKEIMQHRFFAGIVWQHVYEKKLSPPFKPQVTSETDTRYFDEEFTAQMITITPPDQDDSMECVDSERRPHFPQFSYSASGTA
T3 sequence (P31751 whole entry): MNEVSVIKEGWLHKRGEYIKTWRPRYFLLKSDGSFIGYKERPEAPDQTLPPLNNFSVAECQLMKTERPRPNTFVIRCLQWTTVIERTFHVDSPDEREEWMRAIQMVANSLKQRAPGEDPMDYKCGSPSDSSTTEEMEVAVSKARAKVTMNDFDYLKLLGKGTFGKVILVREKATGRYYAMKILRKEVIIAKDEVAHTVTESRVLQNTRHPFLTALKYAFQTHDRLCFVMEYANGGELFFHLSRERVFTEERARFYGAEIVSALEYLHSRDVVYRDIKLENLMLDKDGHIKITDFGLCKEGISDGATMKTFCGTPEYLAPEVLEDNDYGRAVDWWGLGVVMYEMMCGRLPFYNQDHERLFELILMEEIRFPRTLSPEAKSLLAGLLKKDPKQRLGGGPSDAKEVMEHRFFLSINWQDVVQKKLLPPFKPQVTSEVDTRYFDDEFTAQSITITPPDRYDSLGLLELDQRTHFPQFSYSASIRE
T1 sequence (P31749 whole entry E17K): as the sequence (P31749 whole entry) above, with E17K counted along it

IC50 ([1]; Homo sapiens, LAPC4, 72 h) | IC50 [2, 5] | IC50 [3, 5] | IC50 [4, 5] | IC50 [1] | IC50 [2, 6] | IC50 [3, 6] | IC50 [4, 6] | Structure (SMILES)
950 nM | 75.5 nM | 3.63 nM | 18.3 nM | – | – | – | – | COc1nccc(C(=O)N[C@H]2CCc3cc(-n4c(-c5cccnc5N)nc5ccc(-n6cccn6)nc54)ccc32)c1Cl [Compound 281]
1050 nM | 20.9 nM | 4.46 nM | 30.2 nM | – | – | – | – | COc1cncc(C(=O)N[C@H]2CCc3cc(-n4c(-c5cccnc5N)nc5ccc(-n6cccn6)nc54)ccc32)c1 [Compound 21, (S)—N-(5-(2-(2-aminopyridin-3-yl)-5-(1H-pyrazol-1-yl)-3H-imidazo[4,5-b]pyridin-3-yl)-2,3-dihydro-1H-inden-1-yl)-5-methoxynicotinamide]
7880 nM | 366 nM | 33.9 nM | 470 nM | – | – | – | – | Cc1ccncc1C(=O)N[C@H]1CCc2cc(-n3c(-c4cccnc4N)nc4ccc(-n5cccn5)nc43)ccc21 [Compound 31, (S)—N-(5-(2-(2-aminopyridin-3-yl)-5-(1H-pyrazol-1-yl)-3H-imidazo[4,5-b]pyridin-3-yl)-2,3-dihydro-1H-inden-1-yl)-4-methylnicotinamide]
2440 nM | 365 nM | 25.1 nM | 486 nM | – | – | – | – | Nc1ncccc1-c1nc2ccc(-n3cccn3)nc2n1-c1ccc2c(c1)CC[C@@H]2NC1CCN(c2ccccn2)CC1 [Compound 277]
9300 nM | > 1000 nM | 129 nM | 1410 nM | – | – | – | – | Nc1ncccc1-c1nc2ccc(-n3cccn3)nc2n1-c1ccc2c(c1)CC[C@@H]2NC(=O)COc1ccon1 [Compound 5, (S)—N-(5-(2-(2-aminopyridin-3-yl)-5-(1H-pyrazol-1-yl)-3H-imidazo[4,5-b]pyridin-3-yl)-2,3-dihydro-1H-inden-1-yl)-2-(isoxazol-3-yloxy)acetamide]
1140 nM | 229 nM | 15 nM | 636 nM | – | – | – | – | Cc1ccc(C(=O)N[C@H]2CCc3cc(-n4c(-c5cccnc5N)nc5ccc(-n6nccn6)nc54)ccc32)cn1 [Compound 67]
1280 nM | 5.8 nM | 10.9 nM | 449 nM | – | – | – | – | Nc1ncccc1-c1nc2ccc(-n3cccn3)nc2n1-c1ccc2c(c1)CC[C@@H]2n1cc(C2CC2)nn1 [Compound 221]
1660 nM | 179 nM | 10.8 nM | 307 nM | – | – | – | – | Cn1ccc2c(C(=O)N[C@H]3CCc4cc(-n5c(-c6cccnc6N)nc6ccc(-n7cccn7)nc65)ccc43)[nH]cc2c1=O [Compound 6, (S)—N-(5-(2-(2-aminopyridin-3-yl)-5-(1H-pyrazol-1-yl)-3H-imidazo[4,5-b]pyridin-3-yl)-2,3-dihydro-1H-inden-1-yl)-5-methyl-4-oxo-4,5-dihydro-2H-pyrrolo[3,4-c]pyridine-1-carboxamide]
> 10000 nM | > 1000 nM | 93 nM | 3290 nM | – | – | – | – | CCC(=O)N1CCC(N[C@H]2CCc3cc(-n4c(-c5cccnc5N)nc5ccc(-n6cccn6)nc54)ccc32)CC1 [Compound 278]
2770 nM | 734 nM | 16.8 nM | 74.4 nM | – | – | – | – | COc1nccc(C(=O)N[C@H]2CCc3cc(-n4c(-c5cccnc5N)nc5ccc(-n6cccn6)nc54)ccc32)c1OC [Compound 355]
> 10000 nM | > 1000 nM | 47.4 nM | 1200 nM | – | – | – | – | Cn1ccc(N2CCC(N[C@H]3CCc4cc(-n5c(-c6cccnc6N)nc6ccc(-n7cccn7)nc65)ccc43)CC2)n1 [Compound 276]
3650 nM | 78.6 nM | 15.9 nM | 153 nM | – | – | – | – | Cc1ncccc1C(=O)N[C@H]1CCc2cc(-n3c(-c4cccnc4N)nc4ccc(-n5cccn5)nc43)ccc21 [Compound 29, (S)—N-(5-(2-(2-aminopyridin-3-yl)-5-(1H-pyrazol-1-yl)-3H-imidazo[4,5-b]pyridin-3-yl)-2,3-dihydro-1H-inden-1-yl)-2-methylnicotinamide]
1440 nM | 52 nM | 13.2 nM | 431 nM | – | – | – | – | Nc1ncccc1-c1nc2ccc(-n3cccn3)nc2n1-c1ccc2c(c1)CC[C@@H]2NC(=O)c1ccn(C(F)F)n1 [Compound 174]
> 10000 nM | > 1000 nM | 117 nM | 5590 nM | – | – | – | – | N#CC1(C(=O)N2CCC(N[C@H]3CCc4cc(-n5c(-c6cccnc6N)nc6ccc(-n7cccn7)nc65)ccc43)CC2)CC1 [Compound 369]
1900 nM | 157 nM | 30.7 nM | 2040 nM | – | – | – | – | Nc1ncccc1-c1nc2ccc(-n3nccn3)nc2n1-c1ccc2c(c1)CC[C@@H]2NC(=O)c1cccnc1 [Compound 58, (S)—N-(5-(2-(2-aminopyridin-3-yl)-5-(2H-1,2,3-triazol-2-yl)-3H-imidazo[4,5-b]pyridin-3-yl)-2,3-dihydro-1H-inden-1-yl)nicotinamide]
– | 94.4 nM | 11.5 nM | 423 nM | 885 nM | – | – | – | Nc1ncccc1-c1nc2ccc(-n3nccn3)nc2n1-c1ccc2c(c1)CC(F)[C@@H]2NC(=O)c1ccc(C(F)F)nc1 (stereo partly drawn) [Compound 350]
2340 nM | 68.1 nM | 8.14 nM | 211 nM | – | – | – | – | Nc1ncccc1-c1nc2ccc(-n3cccn3)nc2n1-c1ccc2c(c1)CC[C@@H]2NC(=O)c1ccc(F)c(F)c1 [Compound 262]
> 7160 nM | > 487 nM | 17.6 nM | 1310 nM | – | – | – | – | Nc1ncccc1-c1nc2ccc(-n3cccn3)nc2n1-c1ccc2c(c1)CC(F)[C@@H]2NC1CCN(C(=O)C2CC2)CC1 (single isomer, unassigned) [Compound 386]
3000 nM | – | – | – | – | 53.3 nM | 7.99 nM | 477 nM | COc1cc(C(=O)N[C@H]2CCc3cc(-n4c(-c5ccccc5F)nc5ccc(-n6cccn6)nc54)ccc32)ccn1 [Compound 402]
444 nM | 26.5 nM | 8.58 nM | 24.9 nM | – | – | – | – | Nc1ncccc1-c1nc2ccc(-n3cccn3)nc2n1-c1ccc2c(c1)CC[C@@H]2NC(=O)c1cnc(C(F)F)c(Cl)c1 [Compound 365]
560 nM | 10.2 nM | 2.41 nM | 66.5 nM | – | – | – | – | Nc1ncccc1-c1nc2ccc(-n3cccn3)nc2n1-c1ccc2c(c1)CC[C@@H]2NC(=O)c1ccc(O)c(F)c1 [Compound 16, (S)—N-(5-(2-(2-aminopyridin-3-yl)-5-(1H-pyrazol-1-yl)-3H-imidazo[4,5-b]pyridin-3-yl)-2,3-dihydro-1H-inden-1-yl)-3-fluoro-4-hydroxybenzamide]
> 10000 nM | 810 nM | 58.4 nM | 1720 nM | – | – | – | – | Nc1ncccc1-c1nc2ccc(-n3cccn3)nc2n1-c1ccc2c(c1)CC[C@@H]2NC1CCN(C(=O)C2(F)CC2)CC1 [Compound 370]
1060 nM | 26.8 nM | 6.46 nM | 69.6 nM | – | – | – | – | Cc1ccc(C(=O)N[C@H]2CCc3cc(-n4c(-c5cccnc5N)nc5ccc(-n6cccn6)nc54)ccc32)cn1 [Compound 26, (S)—N-(5-(2-(2-aminopyridin-3-yl)-5-(1H-pyrazol-1-yl)-3H-imidazo[4,5-b]pyridin-3-yl)-2,3-dihydro-1H-inden-1-yl)-6-methylnicotinamide]
713 nM | 112 nM | 45.6 nM | 594 nM | – | – | – | – | Nc1ncccc1-c1nc2ccc(-n3cccn3)nc2n1-c1ccc2c(c1)CC[C@@H]2NC(=O)c1ccc(O)c(O)c1 [Compound 323]

Source: patent US12624034B2, “Non-covalent modifiers of AKT1 and uses thereof” (Terremoto Biosciences, Inc., priority 2023, dated 2026)
